Assay results taken from patent US11331327B2, “Antibacterial use of halogenated salicylanilides” (UNION therapeutics A/S, priority 2014, dated 2022).
Values after ≈ are worked out from the molar mass of the structure shown.

Test system: S. aureus clinical isolates and S. aureus ATCC 29213
Test: MIC assay according to CLSI criteria, Example 2, S. aureus strains
Assay type: cell-based, Staphylococcus aureus
Settings: Staphylococcus aureus
Method in brief: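 S. aureus grown aerobically in cation-adjusted Mueller Hinton broth at 37° C. Exponential-phase cultures inoculated at about 5×10^5 cells per well, then incubated 18 hours at 37° C.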

Which results are given for `C=C[C@]1(C)C[C@@H](OC(=O)CS[C@@H]2C[C@H]3CC[C@@H](C2)N3C)[C@]2(C)[C@H](C)CC[C@]3(CCC(=O)[C@H]32)[C@@H](C)[C@@H]1O` [Retapamulin]?
MIC (ATCC 29213 / MRSA, strain MRSA 15): 0.06 µg/mL (≈ 0.116 µM); MIC (ATCC 29213 / MRSA, strain MRSA 16): 0.06 µg/mL (≈ 0.116 µM); MIC (ATCC 29213 / MRSA, strain MRSA 17): 0.03 µg/mL (≈ 0.0579 µM); MIC (ATCC 29213 / MRSA, strain MRSA 18): 0.06 µg/mL (≈ 0.116 µM); MIC (ATCC 29213 / MRSA, strain MRSA 19): 0.03 µg/mL (≈ 0.0579 µM); MIC (ATCC 29213 / MRSA, strain MRSA 20): 0.06 µg/mL (≈ 0.116 µM); MIC (ATCC 29213 / MRSA, strain MRSA 21): 0.125 µg/mL (≈ 0.241 µM); MIC (ATCC 29213 / MRSA, strain MRSA 22): 0.06 µg/mL (≈ 0.116 µM); MIC (ATCC 29213 / MRSA, strain MRSA 23): 0.06 µg/mL (≈ 0.116 µM); MIC (ATCC 29213 / MRSA, strain MRSA 24): 0.06 µg/mL (≈ 0.116 µM); MIC (ATCC 29213 / MRSA, strain MRSA 25): 0.06 µg/mL (≈ 0.116 µM); MIC (ATCC 29213 / MRSA, strain MRSA 26): 0.06 µg/mL (≈ 0.116 µM); MIC (ATCC 29213 / MRSA, strain MRSA 27): 0.06 µg/mL (≈ 0.116 µM); MIC (ATCC 29213 / MRSA, strain MRSA 27b): 0.02 µg/mL (≈ 0.0386 µM); MIC (ATCC 29213 / MRSA, strain MRSA 28): 0.03 µg/mL (≈ 0.0579 µM); MIC (ATCC 29213 / MRSA, strain MRSA 29): 0.06 µg/mL (≈ 0.116 µM); MIC (ATCC 29213 / MRSA, strain MRSA 30): 0.03 µg/mL (≈ 0.0579 µM); MIC (ATCC 29213 / MRSA, strain MRSA 31): 16 µg/mL (≈ 30.9 µM); MIC (ATCC 29213 / MRSA, strain MRSA 32): 0.06 µg/mL (≈ 0.116 µM); MIC (ATCC 29213 / MRSA, strain MRSA 33): 0.06 µg/mL (≈ 0.116 µM); MIC (ATCC 29213 / MRSA, strain MRSA 34): 0.06 µg/mL (≈ 0.116 µM); MIC (ATCC 29213 / MRSA, strain MRSA 35): 0.03 µg/mL (≈ 0.0579 µM); MIC (ATCC 29213 / MRSA, strain MRSA 36): 0.06 µg/mL (≈ 0.116 µM); MIC (ATCC 29213 / MRSA, strain MRSA 37): 0.06 µg/mL (≈ 0.116 µM); MIC (ATCC 29213 / MRSA, strain MRSA 38): 0.06 µg/mL (≈ 0.116 µM); MIC (ATCC 29213 / MRSA, strain MRSA 39): 0.06 µg/mL (≈ 0.116 µM); MIC (ATCC 29213 / MRSA, strain MRSA 40): 0.03 µg/mL (≈ 0.0579 µM); MIC (ATCC 29213 / MRSA, strain MRSA 41): 0.02 µg/mL (≈ 0.0386 µM); MIC (ATCC 29213 / MRSA, strain MRSA 42): 0.06 µg/mL (≈ 0.116 µM); MIC (ATCC 29213 / MRSA, strain MRSA 43): 0.06 µg/mL (≈ 0.116 µM); MIC (ATCC 29213 / MRSA, strain MRSA 44): 0.02 µg/mL (≈ 0.0386 µM); MIC (ATCC 29213 / MRSA, strain MRSA 45): 0.02 µg/mL (≈ 0.0386 µM); MIC (ATCC 29213 / MRSA, strain MRSA 46): 0.02 µg/mL (≈ 0.0386 µM); MIC (ATCC 29213 / MRSA, strain MRSA 47): 0.02 µg/mL (≈ 0.0386 µM); MIC (ATCC 29213 / MRSA, strain MRSA 48): 0.02 µg/mL (≈ 0.0386 µM); MIC (ATCC 29213 / MRSA, strain MRSA 49): 0.02 µg/mL (≈ 0.0386 µM); MIC (ATCC 29213 / MRSA, strain MRSA 50): 0.02 µg/mL (≈ 0.0386 µM); MIC (ATCC 29213 / MRSA, strain MRSA 51): 0.03 µg/mL (≈ 0.0579 µM); MIC (ATCC 29213 / MRSA, strain MRSA 52): 0.02 µg/mL (≈ 0.0386 µM); MIC (ATCC 29213 / MRSA, strain MRSA 53): 0.03 µg/mL (≈ 0.0579 µM); MIC (ATCC 29213 / MRSA, strain MRSA 54): 0.03 µg/mL (≈ 0.0579 µM); MIC (ATCC 29213 / MRSA, strain MRSA 55): 0.02 µg/mL (≈ 0.0386 µM); MIC (ATCC 29213 / MRSA, strain MRSA 56): < 0.01 µg/mL; MIC (ATCC 29213 / MRSA, strain MRSA 57): 0.02 µg/mL (≈ 0.0386 µM); MIC (ATCC 29213 / MRSA, strain MRSA 58): 0.02 µg/mL (≈ 0.0386 µM); MIC (ATCC 29213 / MRSA, strain MRSA 59): 0.02 µg/mL (≈ 0.0386 µM); MIC (ATCC 29213 / MRSA, strain MRSA 60): 0.02 µg/mL (≈ 0.0386 µM); MIC (ATCC 29213 / MRSA, strain MRSA 61): 0.02 µg/mL (≈ 0.0386 µM); MIC (ATCC 29213 / MRSA, strain MRSA 62): 0.02 µg/mL (≈ 0.0386 µM); MIC (ATCC 29213 / MRSA, strain MRSA 63): 0.02 µg/mL (≈ 0.0386 µM); MIC (ATCC 29213 / MRSA, strain MRSA 64): 0.02 µg/mL (≈ 0.0386 µM); MIC (ATCC 29213 / MRSA, strain MRSA 65): 0.02 µg/mL (≈ 0.0386 µM); MIC (ATCC 29213 / MRSA, strain MRSA 66): 0.02 µg/mL (≈ 0.0386 µM); MIC (ATCC 29213 / MRSA, strain MRSA 67): 0.02 µg/mL (≈ 0.0386 µM); MIC (ATCC 29213 / MRSA, strain MRSA 68): 0.02 µg/mL (≈ 0.0386 µM); MIC (ATCC 29213 / MRSA, strain MRSA 69): < 0.01 µg/mL; MIC (ATCC 29213 / MRSA, strain MRSA 70): 0.02 µg/mL (≈ 0.0386 µM); MIC (ATCC 29213 / MRSA, strain MRSA 71): < 0.01 µg/mL; MIC (ATCC 29213 / MRSA, strain MRSA 72): 0.03 µg/mL (≈ 0.0579 µM); MIC (ATCC 29213 / MRSA, strain MRSA 73): 0.03 µg/mL (≈ 0.0579 µM); MIC (ATCC 29213 / MRSA, strain MRSA 74): 0.03 µg/mL (≈ 0.0579 µM); MIC (ATCC 29213 / MRSA, strain MRSA 75): 0.03 µg/mL (≈ 0.0579 µM); MIC (ATCC 29213 / MRSA, strain MRSA 76): 0.03 µg/mL (≈ 0.0579 µM); MIC (ATCC 29213 / MRSA, strain MRSA 77): 0.03 µg/mL (≈ 0.0579 µM); MIC (ATCC 29213 / MRSA, strain MRSA 78): 0.03 µg/mL (≈ 0.0579 µM); MIC (ATCC 29213 / MRSA, strain MRSA 79): < 0.01 µg/mL; MIC (ATCC 29213 / MRSA, strain MRSA 80): 0.02 µg/mL (≈ 0.0386 µM); MIC (ATCC 29213 / MRSA, strain MRSA 81): 0.03 µg/mL (≈ 0.0579 µM); MIC (ATCC 29213 / MRSA, strain MRSA 82): 0.03 µg/mL (≈ 0.0579 µM); MIC (ATCC 29213 / MRSA, strain MRSA 83): 0.03 µg/mL (≈ 0.0579 µM); MIC (ATCC 29213 / MRSA, strain MRSA 84): 0.03 µg/mL (≈ 0.0579 µM); MIC (ATCC 29213 / MRSA, strain MRSA 85): 0.03 µg/mL (≈ 0.0579 µM); MIC (ATCC 29213 / MRSA, strain MRSA 86): 0.03 µg/mL (≈ 0.0579 µM); MIC (ATCC 29213 / MRSA, strain MRSA 87): 0.02 µg/mL (≈ 0.0386 µM); MIC (ATCC 29213 / MRSA, strain MRSA 88): 0.03 µg/mL (≈ 0.0579 µM); MIC (ATCC 29213 / MRSA, strain MRSA 89): 0.02 µg/mL (≈ 0.0386 µM); MIC (ATCC 29213 / MRSA, strain MRSA 90): 0.06 µg/mL (≈ 0.116 µM); MIC (ATCC 29213 / MRSA, strain MRSA 91): 0.06 µg/mL (≈ 0.116 µM); MIC (ATCC 29213 / MRSA, strain MRSA 92): 0.06 µg/mL (≈ 0.116 µM); MIC (ATCC 29213 / MRSA, strain MRSA 93): 0.02 µg/mL (≈ 0.0386 µM); MIC (ATCC 29213 / MRSA, strain MRSA 94): 0.03 µg/mL (≈ 0.0579 µM); MIC (ATCC 29213 / MRSA, strain MRSA 95): 0.03 µg/mL (≈ 0.0579 µM); MIC (ATCC 29213 / MRSA, strain MRSA 96): 0.03 µg/mL (≈ 0.0579 µM); MIC (ATCC 29213 / MRSA, strain MRSA 97): 0.03 µg/mL (≈ 0.0579 µM); MIC (ATCC 29213 / MRSA, strain MRSA 98): 0.03 µg/mL (≈ 0.0579 µM); MIC (ATCC 29213 / MRSA, strain MRSA 99): 0.03 µg/mL (≈ 0.0579 µM); MIC (ATCC 29213 / MRSA, strain MRSA 100): 1 µg/mL (≈ 1.93 µM); MIC (ATCC 29213 / MRSA, strain MRSA 101): 0.03 µg/mL (≈ 0.0579 µM); MIC (ATCC 29213 / MRSA, strain MRSA 102): 0.03 µg/mL (≈ 0.0579 µM); MIC (ATCC 29213 / MRSA, strain MRSA 103): 0.03 µg/mL (≈ 0.0579 µM); MIC (ATCC 29213 / MRSA, strain MRSA 104): 0.03 µg/mL (≈ 0.0579 µM); MIC (ATCC 29213 / MRSA, strain MRSA 105): 0.03 µg/mL (≈ 0.0579 µM); MIC (ATCC 29213 / MRSA, strain MRSA 106): 0.06 µg/mL (≈ 0.116 µM); MIC (ATCC 29213 / MRSA, strain MRSA 107): 0.06 µg/mL (≈ 0.116 µM); MIC (ATCC 29213 / MRSA, strain MRSA 108): 0.03 µg/mL (≈ 0.0579 µM); MIC (ATCC 29213 / MRSA, strain MRSA 109): 0.03 µg/mL (≈ 0.0579 µM); MIC (ATCC 29213 / MRSA, strain MRSA 110): 0.03 µg/mL (≈ 0.0579 µM); MIC (ATCC 29213 / MRSA, strain MRSA 111): 0.03 µg/mL (≈ 0.0579 µM); MIC (ATCC 29213 / MRSA, strain MRSA 112): 0.03 µg/mL (≈ 0.0579 µM); MIC (ATCC 29213 / MRSA, strain MRSA 113): 0.03 µg/mL (≈ 0.0579 µM); MIC (ATCC 29213 / MSSA, strain MSSA 01): 0.03 µg/mL (≈ 0.0579 µM); MIC (ATCC 29213 / MSSA, strain MSSA 02): 0.03 µg/mL (≈ 0.0579 µM); MIC (ATCC 29213 / NEWMAN, strain Newman): 0.03 µg/mL (≈ 0.0579 µM)
